Results on five compounds are retold here after ChEMBL document CHEMBL1131271, “Potent inhibitors of the MAP kinase p38” (Bioorg Med Chem Lett, 1998).

Structures are written as SMILES.

This assay concerns the target MAP kinase p38 (Homo sapiens, UniProt O15264+Q15759+Q16539+P53778). Put plainly: Inhibition of TNF-alpha production by lipopolysaccharide-stimulated human peripheral blood mononuclear cells. Format: functional.

As a reminder, the IC50 is the point on the concentration scale where inhibition reaches its midpoint. A higher IC50 goes with a need for much substance. As to `Nc1ccc2c(-c3ccncc3)c(-c3ccc(F)cc3)[nH]c2n1`, the IC50 is given as 37 nM.
Next, `COc1cccc(COc2cc(N)[nH]c3nc(-c4ccc(F)cc4)c(-c4ccncc4)c2-3)c1`: 1.5 nM.
Next, `Nc1cc(OCCCc2ccccc2)c2c(-c3ccncc3)c(-c3ccc(F)cc3)[nH]c2n1`: 9 nM; `CCCCOc1cc(N)[nH]c2nc(-c3ccc(F)cc3)c(-c3ccncc3)c1-2`: 4 nM; `Nc1cc(OCc2ccccc2)c2c(-c3ccncc3)c(-c3ccc(F)cc3)[nH]c2n1`: 0.91 nM.
